Experimental data published in publication PMC10432564, “Pharmacological perturbation of the phase-separating protein SMNDC1” (Nature Communications, 2023).

Columns and labels:
[1] = biological target: SMN Tudor domain (Homo sapiens, UniProt Q16637); assay: AlphaScreen, SMN Tudor domain / sDMA-peptide interaction
Method: To establish an AlphaScreen[50], we coupled donor beads to purified SMNDC1’s (or SMN’s) Tudor domain via a His-Tag and acceptor beads to a biotinylated peptide corresponding to the C-terminal region of the Small nuclear ribonucleoprotein Sm D3 containing four sDMAs (Fig. 4a). […] To identify ideal concentrations for screening, we performed a cross-titration of Tudor domains and binding peptides (Supplementary Fig. 3b).
The AlphaScreen was conducted in 20 mM sodium phosphate pH 6.5, 50 mM NaCl, Tween 0.01%, BSA 0.1%. Protein concentration was optimized for each batch of purified protein. Optimal concentration was chosen at the lowest concentration with ~80% of maximum signal. […] In the first step, 10 µl of the protein solution containing either SMNDC1’s or SMN’s Tudor domain coupled to a 6xHis-Tag were distributed to 384-well plates pre-spotted with compounds and controls, shaken and incubated for 30 min at RT. Afterwards, 10 µl of peptide solution was added to each well and incubated for 1 h at RT. Finally, 5 µl of a solution containing both Streptavidin Donor and nickel chelate (Ni-NTA) Acceptor beads was added and again incubated for 1 h at RT.

[2] = test system: SMNDC1-GFP αTC1 clones; assay: Live imaging of endogenously tagged SMNDC1-GFP; type: cell-based, mouse; conditions: 50 µM, 12–16 h
Excerpt: (§1) Cell lines with fluorescent tags in the endogenous intron loci of different genes were generated as described in Serebrenik et al., and Reicher et al.[39],[74]. Cells were transiently transfected using Avalanche-Everyday Transfection Reagent with three plasmids in parallel: (1) the donor plasmid containing the artificial intron with splice acceptor and splice donor site, the fluorescent tag GFP or RFP, and a possible correction for the frame of the targeted intron, (2) a pX330 backbone containing Cas9 and the gRNA against the donor plasmid, and (3) a plasmid expressing the gRNA against the target intron (see table below). After 3–5 days, GFP- and/or RFP-positive cells were sorted on a SONY SH800 Cell Sorter to get fluorescent single cell clones. Clones were validated for the correct integration of the intron-tag via comparison of live cell images to publicly available or in-house IF images, genomic DNA PCR amplification of the respective loci, and western blots with antibodies against the target protein and/or the fluorescent tag.
(§2) Cells were imaged on a PerkinElmer Opera Phenix automated microscope with 500 ms exposure time in either GFP or RFP channel, or on a Zeiss LSM 980 microscope. For condition-independent identification nuclear markers such as Hoechst or DRAQ5^TM were used.
Images were analyzed using the high-content image acquisition and analysis software Harmony® 4.9 developed by PerkinElmer. First, nuclei were identified in the channel of the nuclear marker (DAPI/ Hoechst/ DRAQ5^TM) (with Method C, Common Threshold 0.75, Area > 10 µm^2). After the identification of nuclei, their corresponding cytoplasm was also identified using the respective nucleic acid marker (with Method A, Individual Threshold 0.15). Even though the highest staining of these nuclear markers is obviously detected in the nucleus they still produce a significant staining of the cytoplasm above background. After defining the respective cell areas, mean intensity in the different channels was measured. Finally, spots were identified with the according “Spots” algorithm (with Method A, Relative Spot Intensity > 0.053, Splitting Sensitivity: 1.0).

[3] = test system: αTC1 cells; assay: Alternative splicing, RNA sequencing (VAST-TOOLS) and RT-PCR; type: cell-based, mouse
Method: To perform splicing PCRs, RNA was isolated from pelleted cells using the RNeasy Mini Kit (Qiagen, #74106).
RNA sequencing libraries were prepared from low-input samples using the Smart-seq2 protocol. The subsequent library preparation from the amplified cDNA was performed using the Nextera XT DNA library prep kit (Illumina, San Diego, CA, USA). Library concentrations were quantified with the Qubit 2.0 Fluorometric Quantitation system (Life Technologies, Carlsbad, CA, USA) and the size distribution was assessed using the Experion Automated Electrophoresis System (Bio-Rad, Hercules, CA, USA). For sequencing, samples were diluted and pooled into NGS libraries in equimolar amounts.
Alternative splicing events were characterized and quantified using VAST-TOOLS[54] (2.5.1) in conjunction with the Mus musculus database (vastdb.mm2.23.06.20), based on the Genome Reference Consortium assembly GRCm38.p5 and Ensembl transcript annotation 88 (March 2017). Briefly, NGS reads were aligned for each read group independently, read groups were merged into samples and samples were combined into a summary table. […]

[4] = Solubility in aqueous, buffered solution for NMR; type: physicochemical
Method: All NMR acquisition was performed in 3 mm tubes at 25 °C. […] All titration measurements were performed in 20 mM sodium phosphate buffer pH 6.5, 50 mM NaCl, 4 mM dithiothreitol and 10% (v/v) D2O as deuterium lock. Aqueous, buffered inhibitor stock solutions of maximal 20 mM concentration were prepared and carefully adjusted to pH 6.5. Inhibitor concentration was measured by addition of 100 µM DSS, peak integration and calculating with C=I⋅NDSS⋅CDSS/IDSS⋅N where C, I, N and CDSS, IDSS, NDSS is the concentration, peak intensity, and number of protons of inhibitor and DSS, respectively.

[5] = test system: SRRM2-RFP intron 9-10, αTC1; assay: Live imaging of SRRM2-RFP (nuclear speckles); type: cell-based, mouse
Excerpt: as §1, §2
Images were analyzed using the high-content image acquisition and analysis software Harmony® 4.9 developed by PerkinElmer. First, nuclei were identified in the channel of the nuclear marker (DAPI/ Hoechst/ DRAQ5^TM) (with Method C, Common Threshold 0.75, Area > 10 µm^2). After the identification of nuclei, their corresponding cytoplasm was also identified using the respective nucleic acid marker (with Method A, Individual Threshold 0.15). Even though the highest staining of these nuclear markers is obviously detected in the nucleus they still produce a significant staining of the cytoplasm above background. After defining the respective cell areas, mean intensity in the different channels was measured. […]

Sequence of SMN Tudor domain (Q16637 84-147): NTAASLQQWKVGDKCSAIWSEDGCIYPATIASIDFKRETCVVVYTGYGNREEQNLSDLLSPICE

For `CN(C)S(=O)(=O)c1ccc(C(=O)Nc2nc(-c3ccccn3)cs2)cc1` [compound 1], the IC50 [1] was 880 nM, the “SMNDC1-GFP spots within the nucleus” value [2] was “less spots were detected within the nucleus” and the “SMNDC1 within the nucleus (nuclear SMNDC1-GFP)” value [2] was “loss of SMNDC1 within the nucleus”. For the same compound, the “alternatively spliced isoforms by RT-PCR, long-term low-dose treatment” value ([3]; 2 µM over 5 days) was “could also see the effect”, the alternative splicing events ([3]; paired-end RNA sequencing, compound over DMSO) was “increased retention of introns and skipping of exons” and the “solubility” value [4] was “insufficient solubility”. For the same compound, the “SRRM2 and general organization of nuclear speckles” value [5] was “affected”, the SRRM2 spots [5] was “appeared to dissolve into the nucleoplasm” and the “overall SRRM2 intensity” value [5] was “slightly reduced”.
